# Results: ChEMBL document CHEMBL1144164, “Carbonic anhydrase inhibitors: inhibition of the beta-class enzymes from the fungal pathogens Candida albicans and Cryptococcus neoformans with simple anions” (Bioorg Med Chem Lett, 2008)
# Legend:
# [1] = target: Carbonic anhydrase 1 (Homo sapiens) (UniProt P00915)
# Description: Inhibition of human carbonic anhydrase 1 at 20 degC by CO2 hydration method
# [2] = target: Carbonic anhydrase 2 (Homo sapiens) (UniProt P00918)
# Description: Inhibition of human carbonic anhydrase 2 at 20 degC by CO2 hydration method
# [3] = target: T1, Carbonic anhydrase (Methanobacterium thermoautotrophicum) (UniProt Q50565); settings: Methanothermobacter thermautotrophicus
# T1 sequence (whole entry): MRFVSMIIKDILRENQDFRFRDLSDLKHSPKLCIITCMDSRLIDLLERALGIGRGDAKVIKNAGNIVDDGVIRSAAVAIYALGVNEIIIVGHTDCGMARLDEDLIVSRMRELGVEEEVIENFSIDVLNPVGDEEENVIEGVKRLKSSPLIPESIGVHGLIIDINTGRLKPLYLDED
# Description: Inhibition of Methanobacterium thermoautotrophicum Cab at 20 degC by CO2 hydration method
# [4] = test system: Cryptococcus neoformans
# Description: Inhibition of Cryptococcus neoformans Can2 at 20 degC by CO2 hydration method
# Sequence of Carbonic anhydrase 1 (Homo sapiens) (P00915 2-261 limits assumed): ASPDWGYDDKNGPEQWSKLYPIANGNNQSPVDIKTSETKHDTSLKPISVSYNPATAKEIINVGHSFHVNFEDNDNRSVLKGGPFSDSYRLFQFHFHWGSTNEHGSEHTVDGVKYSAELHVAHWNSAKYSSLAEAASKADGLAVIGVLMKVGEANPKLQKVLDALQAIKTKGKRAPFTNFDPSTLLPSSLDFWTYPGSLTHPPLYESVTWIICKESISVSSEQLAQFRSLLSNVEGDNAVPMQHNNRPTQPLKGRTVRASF
smiles,measurement,setting,value
NS(=O)(=O)O,Kinact,[1],0.021 mM
same,Kinact,[2],0.39 mM
same,Kinact,[3],44 mM
same,Kinact,[4],8.22 mM
